In BindingDB's records for doi:10.1021/acs.jmedchem.5b00497 (Shandong University, 2016):

Test: Inhibition of human recombinant CCR5 encoding an HIV-1-longterminal-repeat-regulated beta-galactosidase reporter gene expressed in human HeLaP4 cells assessed as reduction of interaction with HIV-1 gp160 expressed in CHO cells by cell-cell fusion assay

- IC50: 0.65 µM
SMILES: Cc1nc2ccccc2n1C1CCN(CCC(c2ccccc2)c2ccccc2)CC1
